Laboratory results as given in patent US11919856B2, “Compounds” (UCL BUSINESS LTD, priority 2018, dated 2024).

Experiments:
M α1-antitrypsin [1] = molecular target: T1, M α1-antitrypsin (Homo sapiens, UniProt P01009); assay: Biochemical competition binding assay (TR-FRET), M α1-antitrypsin; conditions: selectivity Z over M
T1 construct: Alpha1-antitrypsin was purified from the plasma of ZZ and MM α1-antitrypsin homozygotes; from tissue; host or cells: plasma of MM homozygotes
Description: Alpha1-antitrypsin was purified from the plasma of ZZ and MM α1-antitrypsin homozygotes as described in Lomas et al., Biochemistry. 1993; 32:500-8. Recombinant Cys232Ser α1-antitrypsin was expressed and purified as detailed in Irving et al. Methods Enzymol. 2011; 501:421-66 and Haq et al. Biosci Rep. 2013; 33(3):e00046.
A fluorescent derivative of compound 1 was prepared by derivatizing compound 1 at its ring nitrogen atom with an Alexa Fluor 488 label via a short organic linker group.
A serial dilution of test compounds in DMSO was diluted 25-fold with assay buffer, and 2.5 μl of this intermediate dilution transferred to a black, low-volume 384-well microtitre plate (Greiner BioOne; product no. 784076). […]
Plates were sealed and incubated overnight at room temperature, or for 3 days at 4° C. then 6 hours at room temperature. […] The TR-FRET signal was read on an Envision plate reader, by excitation of Terbium at 337 nm and detection of emission at 520 nm and 495 nm.
Dissociation constants (KD) for the affinity of compounds to Z-a1AT or M-a1AT protein were derived from the pIC50 values according to the Cheng-Prusoff equation, taking into account the concentration of fluorescent ligand used in relation to its affinity as determined in independent Fluorescence Polarisation and TR-FRET experiments: KD(compound)=10^−pIC50(compound)/([…]. Compound Association Experiments

ChromLogD = format: physicochemical
Z α1-antitrypsin [2] = molecular target: T2, Z α1-antitrypsin (Homo sapiens, UniProt P01009, E366K/V237A); assay: Compound association experiments (intrinsic tryptophan fluorescence), Z α1-antitrypsin; format: binding; set-up: a random insertion of the human Z α1-antitrypsin gene; from tissue; host or cells: liver and plasma of Z α1-antitrypsin transgenic mice (human Z transgene)
T2 sequence (P01009 25-418 V237A/E366K): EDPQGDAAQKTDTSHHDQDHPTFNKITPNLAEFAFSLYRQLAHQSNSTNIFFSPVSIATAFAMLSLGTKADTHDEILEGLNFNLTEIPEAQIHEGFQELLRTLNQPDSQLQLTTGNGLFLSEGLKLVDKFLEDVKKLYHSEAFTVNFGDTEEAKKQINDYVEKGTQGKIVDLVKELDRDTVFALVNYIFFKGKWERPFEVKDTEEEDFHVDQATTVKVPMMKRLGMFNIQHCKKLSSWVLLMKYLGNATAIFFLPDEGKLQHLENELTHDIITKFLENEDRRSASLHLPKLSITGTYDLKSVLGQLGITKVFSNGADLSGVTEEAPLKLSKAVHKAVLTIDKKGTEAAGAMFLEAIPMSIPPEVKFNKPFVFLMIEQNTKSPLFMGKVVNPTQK
Description: The intrinsic tryptophan fluorescence of α1-antitrypsin is dominated by Trp194 in the breach region (Tew et al. J Mol Biol. 2001 Nov. 9; 313(5):1161-9) and can be used to monitor the progress of compound binding. Plasma M and Z α1-antitrypsin were diluted to 0.2 mg/ml in 100 μM PBS, and Compound 1 (or an equivalent volume of DMSO) added to a concentration of 10 μM. Fluorescence (λex=280 nm, λem=330 nm) was monitored for at least 2 hours, and the half-time of change was calculated.
Kinetic data in stopped flow experiments were fitted to exponential decay curves with offset and linear slope, to account for a constant drift in the background, resulting in observed pseudo-first-order rate constants k(obs): y=A0·e^−k(obs)t+slope·t+offset where t=time and Ao=amplitude at t=0. The second-order on-rate was then obtained as the slope when plotting k(obs) values versus compound concentration. Off-rates were calculated from the on-rates and the KD values determined from the binding assays. Cell Biology

Z α1-antitrypsin [3] = molecular target: T2, Z α1-antitrypsin; assay: Rapid refolding (non-denaturing PAGE); format: biochemical; conditions: snap dilution refolding
Description: Refolding of α1-antitrypsin in vitro is not fully reversible, due to loss of material from amorphous aggregation, polymerisation and misfolding. These contributions cannot be readily deconvoluted by bulk spectroscopic methods and therefore refolding was evaluated by non-denaturing PAGE. M and Z α1-antitrypsin at 9.6 mg/ml were denatured in 6 M urea and 15 mM sodium phosphate pH 8.0 for 4 hours at room temperature, and 1.25 μl was snap refolded into 250 μl PBS containing 0-50 μM Compound 1 and a normalised concentration of 5% v/v DMSO. After incubation for 1 hour at room temperature samples were analysed by Coomassie-stained 3-12% w/v acrylamide Bis-Tris Native PAGE gel (Life Technologies).
Mutations that interfere with the opening of […] or that perturb its interaction with the N-terminal portion of the reactive centre loop alter the ability of serpins to inhibit target proteases. The stoichiometry of inhibition (SI) was determined for M and Z α1-antitrypsin in discontinuous experiments against a model target protease, chymotrypsin. The pre-incubation of both variants with Compound 1 led to a >98% loss of protease inhibitory activity. […]

[4] = Blood exposure after single PO administration in male CD-1 mouse; format: in vivo
Excerpt: Compound 1 had in vitro ADME properties suitable for in vivo evaluation of the pre-clinical and clinical pharmacology of the molecule.

Z α1-antitrypsin [5] = molecular target: T2, Z α1-antitrypsin; assay: Stoichiometry of inhibition against chymotrypsin, Z α1-antitrypsin; format: biochemical; conditions: Z α1-antitrypsin pre-incubated with compound
Description: (§1) Mutations that interfere with the opening of […] or that perturb its interaction with the N-terminal portion of the reactive centre loop alter the ability of serpins to inhibit target proteases. The stoichiometry of inhibition (SI) was determined for M and Z α1-antitrypsin in discontinuous experiments against a model target protease, chymotrypsin. The pre-incubation of both variants with Compound 1 led to a >98% loss of protease inhibitory activity. […] To investigate whether this activity was consistent with action as a chemical chaperone, M and Z α1-antitrypsin were unfolded in vitro into 6 M guanidine hydrochloride, and rapidly refolded by snap dilution into denaturant-free buffer in the presence or absence of Compound 1.

M α1-antitrypsin [6] = molecular target: T1, M α1-antitrypsin; assay: Stoichiometry of inhibition against chymotrypsin, M α1-antitrypsin; format: biochemical; conditions: M α1-antitrypsin pre-incubated with compound
Description: as §1

T1 sequence (P01009 25-418): as the sequence (P01009 25-418 V237A/E366K) above, with A213V, K342E counted along it

Compound: CCC[C@@H](NC(=O)c1cccc2c1CC(=O)N2)[C@@H](O)c1cccc(F)c1C [Compound 1, N-[(1S,2R)-1-(3-fluoro-2-methylphenyl)-1-hydroxypentan-2-yl]-2-oxo-2,3-dihydro-1H-indole-4-carboxamide]
- fold lower affinity for plasma-purified wild-type M α1-antitrypsin (M α1-antitrypsin [1]): at least 50 fold
- ChromLogD (pH7.4) (ChromLogD): 3.8
- koff (Z α1-antitrypsin [2]; calculated from on-rate and KD, read-out: first-order dissociation rate): 6.1e-05 s⁻¹
- kon (Z α1-antitrypsin [2]; read-out: second-order association rate): 41000 M⁻¹ s⁻¹
- anodally-shifted migration (misfolded byproduct) of refolded Z variant (Z α1-antitrypsin [3]): corrected at stoichiometric concentrations and above
- DNAUCinf ([4]; single PO 10 mg/kg): 202±101
- mean dose-normalised Cmax ([4]; single PO 10 mg/kg): 58±112
- DNAUCinf ([4]; single PO 30 mg/kg): 294±47
- mean dose-normalised Cmax ([4]; single PO 30 mg/kg): 113±27
- DNAUCinf ([4]; single PO 100 mg/kg): 403±246
- mean dose-normalised Cmax ([4]; single PO 100 mg/kg): 113±27
- loss of protease inhibitory activity (Z α1-antitrypsin [5]): > 98%
- loss of protease inhibitory activity (M α1-antitrypsin [6]): > 98%
